Reference: patent US20080194574A1, “Pyrazine Derivatives As Effective Compounds Against Infectious Diseases” (AXXIMA PHARMACEUTICALS AG, priority 2003, published 2008)

target: T1, viral kinase pUL-97 (Human cytomegalovirus, UniProt P16788); experiment: UL97 kinase assay on Immobilon plate; assay type: biochemical; details: inhibition of UL 97 kinase activity; class by IC50 / % inhibition at 10 or 100 μM; read-out: Activity Class [A, B, C]
T1 construct: The pUL-97 gene was cloned into a baculovirus vector; GST (glutathione S-transferase) (N); made in house; host or cells: Sf9 insect cells, baculovirus
In short: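 GST-pUL97 from baculovirus-infected Sf9 cells phosphorylated myelin basic protein with ATP (3 μM in the added assay buffer) and γ-[33P]ATP in Tris-HCl pH 7.5 buffer with MnCl2 and DTT. Reaction ran 1 h at 30 °C with graded compound concentrations and was stopped with EDTA. 33P incorporation was measured by scintillation after filter capture and phosphoric acid washes.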

T1 sequence (P16788 whole entry): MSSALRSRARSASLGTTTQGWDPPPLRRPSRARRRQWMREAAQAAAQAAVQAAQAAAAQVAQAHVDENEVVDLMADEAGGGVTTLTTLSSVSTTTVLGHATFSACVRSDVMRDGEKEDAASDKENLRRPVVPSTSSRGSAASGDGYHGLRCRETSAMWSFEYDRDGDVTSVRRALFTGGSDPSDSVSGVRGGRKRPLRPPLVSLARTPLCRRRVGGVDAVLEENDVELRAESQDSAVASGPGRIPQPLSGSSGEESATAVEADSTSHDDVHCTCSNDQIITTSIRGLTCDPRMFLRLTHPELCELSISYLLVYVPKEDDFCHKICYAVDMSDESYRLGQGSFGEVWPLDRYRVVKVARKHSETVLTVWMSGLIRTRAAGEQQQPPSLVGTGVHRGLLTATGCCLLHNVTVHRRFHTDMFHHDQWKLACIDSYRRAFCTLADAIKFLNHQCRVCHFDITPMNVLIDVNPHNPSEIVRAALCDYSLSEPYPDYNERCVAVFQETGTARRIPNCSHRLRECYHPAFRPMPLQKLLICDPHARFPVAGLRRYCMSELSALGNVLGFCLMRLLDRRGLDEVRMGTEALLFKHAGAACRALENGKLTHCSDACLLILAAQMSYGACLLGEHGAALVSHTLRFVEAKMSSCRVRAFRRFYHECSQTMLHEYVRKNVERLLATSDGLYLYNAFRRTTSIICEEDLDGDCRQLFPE

| IC50 [µM] | Compound |
| --- | --- |
| 1 to 10 | CC(=O)c1ccc(-c2cncc(N3CCN(c4cccc(Cl)c4)CC3)n2)cc1 [compound 103, 1-{4-[4-(3-Chloro-phenyl)-3,4,5,6-tetrahydro-2H-[1,2′]bipyrazinyl-6′-yl]-phenyl}-ethanone] |
| 1 to 10 | COc1cccc(-c2cncc(N3CCN(c4ccccc4OC)CC3)n2)c1 [compound 105, 4-(2-Methoxy-phenyl)-6′-(3-methoxy-phenyl)-3,4,5,6-tetrahydro-2H-[1,2′]bipyrazinyl] |
| 1 to 10 | COc1ccc(-c2cncc(N3CCN(c4ccccc4OC)CC3)n2)cc1OC [compound 107, 6′-(3,4-Dimethoxy-phenyl)-4-(2-methoxy-phenyl)-3,4,5,6-tetrahydro-2H-[1,2′]bipyrazinyl] |
| 1 to 10 | COc1ccccc1N1CCN(c2cncc(-c3ccc(SC)cc3)n2)CC1 [compound 108, 4-(2-Methoxy-phenyl)-6′-(4-methylsulfanyl-phenyl)-3,4,5,6-tetrahydro-2H-[1,2′]bipyrazinyl] |
| 1 to 10 | Fc1ccc(-c2cncc(N3CCN(c4ccccc4)CC3)n2)cc1 [compound 111, 6′-(4-Fluoro-phenyl)-4-phenyl-3,4,5,6-tetrahydro-2H-[1,2′]bipyrazinyl] |
| 1 to 10 | Fc1ccc(-c2cncc(N3CCN(c4ccccc4F)CC3)n2)cc1 [compound 114, 4-(2-Fluoro-phenyl)-6′-(4-fluoro-phenyl)-3,4,5,6-tetrahydro-2H-[1,2′]bipyrazinyl] |
| 1 to 10 | CC(=O)c1cccc(-c2cncc(N3CCN(c4ccccc4F)CC3)n2)c1 [compound 115, 1-{3-[4-(2-Fluoro-phenyl)-3,4,5,6-tetrahydro-2H-[1,2′]bipyrazinyl-6′-yl]-phenyl}-ethanone] |
| 1 to 10 | CSc1ccc(-c2cncc(N3CCN(c4ccccc4F)CC3)n2)cc1 [compound 116, 4-(2-Fluoro-phenyl)-6′-(4-methylsulfanyl-phenyl)-3,4,5,6-tetrahydro-2H-[1,2′]bipyrazinyl] |
| 1 to 10 | OCc1ccc(-c2cncc(N3CCN(c4ccccc4)CC3)n2)cc1 [compound 117, [4-(4-Phenyl-3,4,5,6-tetrahydro-2H-[1,2′]bipyrazinyl-6′-yl)-phenyl]-methanol] |
| 1 to 10 | Fc1ccccc1N1CCN(c2cncc(-c3ccsc3)n2)CC1 [compound 122, 4-(2-Fluoro-phenyl)-6′-thiophen-3-yl-3,4,5,6-tetrahydro-2H-[1,2′]bipyrazinyl] |
| 10 to 100 | Cc1ccccc1-c1cncc(N2CCN(c3ccccc3F)CC2)n1 [compound 124, 4-(2-Fluoro-phenyl)-6′-o-tolyl-3,4,5,6-tetrahydro-2H-[1,2′]bipyrazinyl] |
| 1 to 10 | OCc1ccc(-c2cncc(N3CCN(c4ccccc4F)CC3)n2)cc1 [compound 125, {4-[4-(2-Fluoro-phenyl)-3,4,5,6-tetrahydro-2H-[1,2′]bipyrazinyl-6′-yl]-phenyl}-methanol] |
| 10 to 100 | CCOc1ccc(-c2cncc(N3CCN(c4ccccc4F)CC3)n2)cc1 [compound 127, 6′-(4-Ethoxy-phenyl)-4-(2-fluoro-phenyl)-3,4,5,6-tetrahydro-2H-[1,2′]bipyrazinyl] |
| 1 to 10 | COc1cccc(-c2cncc(N3CCN(c4ccc(OC)c(OC)c4)CC3)n2)c1 [compound 134, 4-(3,4-Dimethoxy-phenyl)-6′-(3-methoxy-phenyl)-3,4,5,6-tetrahydro-2H-[1,2′]bipyrazinyl] |
| 10 to 100 | Cc1ccc(N2CCN(c3cncc(-c4ccccc4)n3)CC2)cc1 [compound 135, 6′-Phenyl-4-p-tolyl-3,4,5,6-tetrahydro-2H-[1,2′]bipyrazinyl] |
| 1 to 10 | CSc1ccc(-c2cncc(N3CCN(c4ccc(C)cc4)CC3)n2)cc1 [compound 137, 6′-(4-Methylsulfanyl-phenyl)-4-p-tolyl-3,4,5,6-tetrahydro-2H-[1,2′]bipyrazinyl] |
| 10 to 100 | Fc1ccc(-c2cncc(N3CCN(c4ccc(F)cc4)CC3)n2)cc1 [compound 138, 4,6′-Bis-(4-fluoro-phenyl)-3,4,5,6-tetrahydro-2H-[1,2′]bipyrazinyl] |
| 1 to 10 | COc1ccc(-c2cncc(N3CCN(c4ccc(F)cc4)CC3)n2)cc1OC [compound 139, 6′-(3,4-Dimethoxy-phenyl)-4-(4-fluoro-phenyl)-3,4,5,6-tetrahydro-2H-[1,2′]bipyrazinyl] |
| 10 to 100 | COc1ccc(OC)c(-c2cncc(N3CCN(c4ccc(F)cc4F)CC3)n2)c1 [compound 144, 4-(2,4-Difluoro-phenyl)-6′-(2,5-dimethoxy-phenyl)-3,4,5,6-tetrahydro-2H-[1,2′]bipyrazinyl] |

Second part, the compound before the results:

| Compound | IC50 [µM] |
| --- | --- |
| COc1ccccc1N1CCN(c2cncc(-c3ccc(C(N)=O)cc3)n2)CC1 [compound 104, 4-[4-(2-Methoxy-phenyl)-3,4,5,6-tetrahydro-2H-[1,2′]bipyrazinyl-6′-yl]-benzamide] | < 1 |
| COc1ccccc1N1CCN(c2cncc(-c3ccc(F)cc3)n2)CC1 [compound 106, 6′-(4-Fluoro-phenyl)-4-(2-methoxy-phenyl)-3,4,5,6-tetrahydro-2H-[1,2′]bipyrazinyl] | 1 to 10 |
| c1ccc(-c2cncc(N3CCN(c4ccccc4)CC3)n2)cc1 [compound 109, 4,6′-Diphenyl-3,4,5,6-tetrahydro-2H-[1,2′]bipyrazinyl] | 1 to 10 |
| COc1cccc(-c2cncc(N3CCN(c4ccccc4)CC3)n2)c1 [compound 110, 6′-(3-Methoxy-phenyl)-4-phenyl-3,4,5,6-tetrahydro-2H-[1,2′]bipyrazinyl] | 1 to 10 |
| CC(=O)c1cccc(-c2cncc(N3CCN(c4ccccc4)CC3)n2)c1 [compound 112, 1-[3-(4-Phenyl-3,4,5,6-tetrahydro-2H-[1,2′]bipyrazinyl-6′-yl)-phenyl]-ethanone] | 1 to 10 |
| COc1cccc(-c2cncc(N3CCN(c4ccccc4F)CC3)n2)c1 [compound 113, 4-(2-Fluoro-phenyl)-6′-(3-methoxy-phenyl)-3,4,5,6-tetrahydro-2H-[1,2′]bipyrazinyl] | 1 to 10 |
| c1ccc(N2CCN(c3cncc(-c4ccoc4)n3)CC2)cc1 [compound 118, 6′-Furan-3-yl-4-phenyl-3,4,5,6-tetrahydro-2H-[1,2′]bipyrazinyl] | 1 to 10 |
| COc1ccc(Cl)cc1-c1cncc(N2CCN(c3ccccc3)CC2)n1 [compound 119, 6′-(5-Chloro-2-methoxy-phenyl)-4-phenyl-3,4,5,6-tetrahydro-2H-[1,2′]bipyrazinyl] | 10 to 100 |
| CSc1ccc(-c2cncc(N3CCN(c4ccccc4)CC3)n2)cc1 [compound 120, 6′-(4-Methylsulfanyl-phenyl)-4-phenyl-3,4,5,6-tetrahydro-2H-[1,2′]bipyrazinyl] | 1 to 10 |
| CCOc1ccc(-c2cncc(N3CCN(c4ccccc4)CC3)n2)cc1 [compound 121, 6′-(4-Ethoxy-phenyl)-4-phenyl-3,4,5,6-tetrahydro-2H-[1,2′]bipyrazinyl] | 1 to 10 |
| Fc1ccccc1N1CCN(c2cncc(-c3ccc4ccccc4c3)n2)CC1 [compound 123, 4-(2-Fluoro-phenyl)-6′-naphthalen-2-yl-3,4,5,6-tetrahydro-2H-[1,2′]bipyrazinyl] | 1 to 10 |
| Fc1ccccc1N1CCN(c2cncc(-c3ccoc3)n2)CC1 [compound 126, 4-(2-Fluoro-phenyl)-6′-furan-3-yl-3,4,5,6-tetrahydro-2H-[1,2′]bipyrazinyl] | 1 to 10 |
| Fc1cc(-c2cncc(N3CCN(c4ccccc4F)CC3)n2)ccc1-c1ccccc1 [compound 128, 6′-(2-Fluoro-biphenyl-4-yl)-4-(2-fluoro-phenyl)-3,4,5,6-tetrahydro-2H-[1,2′]bipyrazinyl] | 10 to 100 |
| CCOc1ccc(-c2cncc(N3CCN(c4cccc(Cl)c4)CC3)n2)cc1 [compound 129, 4-(3-Chloro-phenyl)-6′-(4-ethoxy-phenyl)-3,4,5,6-tetrahydro-2H-[1,2′]bipyrazinyl] | 1 to 10 |
| CC(=O)c1ccc(-c2cncc(N3CCN(c4ccccc4F)CC3)n2)cc1 [compound 130, 1-{4-[4-(2-Fluoro-phenyl)-3,4,5,6-tetrahydro-2H-[1,2′]bipyrazinyl-6′-yl]-phenyl}-ethanone] | 1 to 10 |
| N#Cc1ccc(-c2cncc(N3CCN(c4ccncc4)CC3)n2)cc1 [compound 131, 4-(4-Pyridin-4-yl-3,4,5,6-tetrahydro-2H-[1,2′]bipyrazinyl-6′-yl)-benzonitrile] | 1 to 10 |
| CC(=O)c1cccc(-c2cncc(N3CCN(c4ccncc4)CC3)n2)c1 [compound 132, 1-[3-(4-Pyridin-4-yl-3,4,5,6-tetrahydro-2H-[1,2′]bipyrazinyl-6′-yl)-phenyl]-ethanone] | 1 to 10 |
| CC(=O)c1ccc(-c2cncc(N3CCN(c4ccncc4)CC3)n2)cc1 [compound 133, 1-[4-(4-Pyridin-4-yl-3,4,5,6-tetrahydro-2H-[1,2′]bipyrazinyl-6′-yl)-phenyl]-ethanone] | 1 to 10 |
| Cc1ccc(N2CCN(c3cncc(-c4ccc(F)cc4)n3)CC2)cc1 [compound 136, 6′-(4-Fluoro-phenyl)-4-p-tolyl-3,4,5,6-tetrahydro-2H-[1,2′]bipyrazinyl] | 1 to 10 |
| CSc1ccc(-c2cncc(N3CCN(c4ccc(F)cc4)CC3)n2)cc1 [compound 140, 4-(4-Fluoro-phenyl)-6′-(4-methylsulfanyl-phenyl)-3,4,5,6-tetrahydro-2H-[1,2′]bipyrazinyl] | 1 to 10 |
| CC(=O)c1ccccc1-c1cncc(N2CCN(c3ccc(F)cc3F)CC2)n1 [compound 141, 1-{2-[4-(2,4-Difluoro-phenyl)-3,4,5,6-tetrahydro-2H-[1,2′]bipyrazinyl-6′-yl]-phenyl}-ethanone] | 1 to 10 |
| Cc1ccc(-c2cncc(N3CCN(c4ccc(F)cc4F)CC3)n2)cc1 [compound 142, 4-(2,4-Difluoro-phenyl)-6′-p-tolyl-3,4,5,6-tetrahydro-2H-[1,2′]bipyrazinyl] | 10 to 100 |
| Fc1ccc(N2CCN(c3cncc(-c4cccc5ccccc45)n3)CC2)c(F)c1 [compound 143, 4-(2,4-Dinfluoro-phenyl)-6′-naphthalen-1-yl-3,4,5,6-tetrahydro-2H-[1,2′]bipyrazinyl] | 10 to 100 |
